{
  "source": "patent US20250339409A1",
  "about": "“USES OF PAN BET INHIBITORS” (VYNE THERAPEUTICS INC., priority 2021, published 2025)",
  "assay": "Chemical and physical stability of formulations (HPLC, polarized light microscopy)",
  "type": "physicochemical",
  "conditions": "3 m at 25° C.",
  "protocol": "For Polarized Light Microscopy evaluation, the samples of the formulations in petrolatum are heated to 55° C. to melt most of the petrolatum crystals and make visible crystals of API. The API crystals are measured and photomicrographs are taken.\nThe microscopy samples of API are prepared by dispersing some (unmeasured amount) of API powder in a drop of mineral oil. The dispersion is done by a spatula. The concentration of API in mineral oil is unknown.\nThe stability of prepared formulations was assessed by HPLC testing of samples of two formulations, prepared with API from two different sources. […] The area % of the main peak in the samples after temperature exposure was compared to area % of the main peak in initial samples of the same batches and in the corresponding APIs. The samples exposed to stability challenge were also evaluated for presence of new peaks, not observed in API or in initial samples.",
  "data": [
    {"compound": "Cn1cc(-c2cccc(O)c2Oc2ccccc2)c2cc[nH]c2c1=O", "note": "[BETi1]", "values": [
      {"measurement": "degradation in compositions comprising suspended BETi1", "value": "no degradation of BETi1 being observed"}
    ]}
  ]
}
